# Test results taken from patent US9994915B2, “miR-211 expression and related pathways in human melanoma” (Sanford-Burnham Medical Research Institute, priority 2010, dated 2018).
# Key:
# Format in all cases: cell-based, human
# KCNMA1 protein = test: western blot of KCNMA1 protein in WM1552C lines; conditions: stably transfected WM1552C lines
# Description: qRT-PCR analyses were then run to determine whether the induced expression of miR-211 in melanoma cells could reduce KCNMA1 transcript levels. […] To further address whether KCNMA1 mRNA levels reflected KCNMA1 protein expression, a western blot analysis was performed looking for KCNMA1 in cell extracts obtained from: 1) WM1552C, 2) WM1552C/VO (WM1552C cells with a stably-incorporated empty expression vector), 3) WM1552C/211(400), 4) WM1552C/211(800), and 5) WM1552C/KC KO (WM1552C cells with a stably-expressing shRNA against the KCNMA1 mRNA) (FIG. 6C). […] To further confirm our observations, we measured the correlation between miR-211 expression and KCNMA1 protein levels (FIG. 6D). […] To confirm that this expression correlation occurred in non-transformed cells in addition to cancerous cell lines, the effect of miR-211 inhibition on the expression of KCNMA1 in melanocytes was examined. Melanocytes were transfected with anti-miR-211 inhibitors (Exiqon) and the protein expression of KCNMA1 was measured. […]
# 2.5×10^5 cells WM1552C/211(800) cells were seeded into wells of a 6-well plate. […] After 48 hours, the cells were harvested by trypsinization and counted using an automated cell counter (Cellometer®, Nexcelom Bioscience). […]
# A KCNMA1 constitutively-expressing plasmid was transiently transfected into WM1552C/211(800) cells. […] KCNMA1 protein expression levels were then detected by KCNMA1 antibody. […]
# IGFBP5 mRNA = test: Next Gen sequencing of IGFBP5 mRNA in WM1552C cells
# Description: To extend the findings of the MITF knock-down study and to further establish IGFBP5 as a miR-211 target, the effect of miR-211 expression on IGFBP5 mRNA was determined. WM1552C cells were transfected with either an empty vector or the vector encoding and expressing miR-211. Additionally, untransfected WM1552C cells were treated with 5-Aza-2′deoxycytidine (“5-Aza”) to investigate whether miR-211 down-regulates IGFBP5 mRNA production through a genomic methylation mechanism.
# IGFBP5 3′UTR = test: luciferase reporter target inhibition assay with IGFBP5 3′UTR; conditions: A375/211 cells
# Source text: A putative miR-211 binding site with the sequence 5′-aaagggaa-3′ (SEQ ID NO:40) is present in the 3′-UTR of the IGFBP5 mRNA (SEQ ID NO:41; FIG. 26). In order to investigate the specificity and mechanism of miR-211 inhibition of IGFBP5, three luciferase reporter constructs were created, each having a different 3′-UTR on the luciferase gene. The constructs were as follows: (i) luciferase coding sequence with the luciferase 3′-UTR (“pcDNA6/Luc/NP3”), (ii) luciferase coding sequence with the IGFBP5 3′-UTR (“pcDNA6/Luc/NP3/IGFBP5 3′UTR”), and (iii) luciferase coding sequence with the IGFBP5 3′-UTR having a mutation in the miR-211 binding site (“pcDNA6/Luc/NP3/IGFBP5 3′UTR Mut”). The mutant miR-211 binding site is represented by SEQ ID NO:42 (5′-taagccta-3′). Vectors encoding these constructs were transfected into native A375 cells, A375 cells containing the miR-211-expressing vector (“A375/211”), or A375 cells having an empty vector (“A375/VO”). […] In the miR-211-expressing A375 cells, luciferase expression was unaffected for the constructs containing the native luciferase 3′UTR and the IGFBP5 3′UTR in which the miR-211 binding site had been altered. However, the luciferase activity was reduced by nearly 40% when the native IGFBP5 3′UTR was expressed.
# A375 cells [1] = test: cell counts in hypoxic chamber (2% O2), A375/211; conditions: A375/211 cells, hypoxic chamber 2% O2 (parental A375 about 68%)
# Source text: To test under actual hypoxic conditions, both cell lines were placed into a hypoxic chamber containing 2% O2 prior to determination of cell counts. […] As in the DFO-simulated hypoxic condition assay, the presence of miR-211 caused the effect to be greatly exacerbated, reducing survival to about 29%.
# A375 cells [2] = test: abundance of mitochondria, MitoTracker; conditions: miR-211-expressing cells
# [3] = system: hypoxia-inducible factor 1 alpha (HIF-1α); test: level of HIF-1α in miR-211-expressing cells
# Description: Deep-sequencing (RNA-seq) and proteomics (mass spectrometry) data from two melanoma cell lines A375 and W[…], each expressing miR-211 or the empty vector, were generated. […] Energy consumption was investigated in miR-211-expressing cells. Using the Seahorse XF96 Analyzer, it was determined that miR-211-expressing melanoma cells (A375) consumed nearly double the amount of oxygen as control cells expressing the empty vector (FIG. 35). […] Finally, we measured the level of hypoxia-inducible factor 1 alpha (HIF-1α) in miR-211-expressing cells. HIF-1α expression was reduced by miR-211 expression which is an indication of cellular respiration changes (FIG. 37).
substance,measurement,setting,value
miR-211: pre-miR-211 sequence stably expressed from plasmid pcDNA4/miR-211 in melanoma cells; mature sequence UUCCCUUUGUCAUCCUUCGCCU (SEQ ID NO: 15) (listed as Homo sapiens),KCNMA1 protein levels compared to WM1552C/VO or untransfected WM1552C,KCNMA1 protein,significantly reduced
same,IGFBP5 mRNA expression,IGFBP5 mRNA,almost to undetectably levels
same,reduction of luciferase activity,IGFBP5 3′UTR; native IGFBP5 3′UTR construct,~40%
same,luciferase expression,IGFBP5 3′UTR; native luciferase 3′UTR or IGFBP5 3′UTR with altered miR-211 binding site,unaffected
same,survival vs normoxic condition cells,A375 cells [1],about 29%
same,number of mitochondria vs empty vector-expressing cells,A375 cells [2],higher number of mitochondria
same,HIF-1α expression,[3],reduced
